Columns and labels:
HCV replicon [1] = test: HCV replicon luciferase assay; assay type: cell-based, Hepatitis C virus; details: Hepatitis C virus, cells marked **: Luciferase assay; read-out: EC50
Procedure: To prepare plates, HCV replicon cells, with or without a Renilla luciferase reporter gene, were trypsinized and placed into each well of a 96-well plate with titrated test compounds added in columns 3 through 12; columns 1 and 2 contained a control compound (HCV protease inhibitor), and the bottom row contained cells without compound. The plates were then placed in a CO2 incubator at 37 degrees C.
Assays. Subsequent to addition of the test compounds described above (FRET Assay Preparation), at various times the plate was removed and Alamar blue solution (Trek Diagnostics, #00-100) was added per well as a measure of cellular toxicity. After reading in a Cytoflour 4000 instrument (PE Biosystems), plates were rinsed with PBS and then used for FRET assay by the addition of 30 ul of the FRET peptide assay reagent described above (FRET Assay Preparation) per well. The plate was then placed into the Cytoflour 4000 instrument which had been set to 340 excite/490 emission, automatic mode for 20 cycles and the plate read in a kinetic mode. Typically, the signal to noise using an endpoint analysis after the reads was at least three-fold. Alternatively, after Alamar blue reading, plates were rinsed with PBS, 50 ul of DMEM (high glucose) without phenol red was added and plates were then used for luciferase assay using the Promega Dual-Glo Luciferase Assay System.
Compound analysis was determined by quantification of the relative HCV replicon inhibition and the relative cytotoxicity values. To calculate cytoxicity values, the average Alamar Blue fluorescence signals from the control wells were set as 100% non-toxic. The individual signals in each of the compound test wells were then divided by the average control signal and multiplied by 100% to determine […]. To calculate the HCV replicon inhibition values, an average background value was obtained from the two wells containing the highest amount of HCV protease inhibitor at the end of the assay period. These numbers were similar to those obtained from naïve Huh-7 cells.
The background numbers were then subtracted from the average signal obtained from the control wells and this number was used as 100% activity. The individual signals in each of the compound test wells were then divided by the averaged control values after background subtraction and multiplied by 100% to determine percent activity. EC50 values for a protease inhibitor titration were calculated as the concentration which caused a 50% reduction in FRET or luciferase activity. The two numbers generated for the compound plate, percent cytoxicity and percent activity were used to determine compounds of interest for further analysis.

HCV replicon [2] = test: HCV replicon FRET assay; assay type: cell-based; details: Hepatitis C virus; FRET assay; read-out: EC50
Procedure, shortened: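 Replicon cells (± Renilla luciferase reporter) incubated with titrated compound at 37 °C; NS3 protease activity read by FRET peptide cleavage (20 uM EDANS/DABCYL substrate, 340/490 nm kinetic) or luciferase.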

[3] = biological target: T1, HCV NS5B RdRp genotype 1b (Hepatitis C virus genotype 1b, UniProt Q9WMX2); test: Modified HCV NS5B RdRp enzyme assay (with preincubation); assay type: biochemical
T1 construct: The protein was expressed with an 18 amino acid C-terminal truncation to enhance the solubility; made in house; host or cells: E. coli BL21 (DE3), pET21a
Procedure, shortened: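 C-terminally truncated (Δ18) genotype 1b NS5B from E. coli was preincubated (14 nM) with compound, then reaction started with polyA template (0.2 nM), ³H-UTP (0.29 μM) and dT12 primer (20 nM) precaptured on SPA beads. Reaction ran 4 h at 30 °C in pH 7.5 Hepes buffer with 2% DMSO. IC50 came from seven concentrations.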

[4] = modified method (with preincubation)

T1 sequence (Q9WMX2 2420-2992): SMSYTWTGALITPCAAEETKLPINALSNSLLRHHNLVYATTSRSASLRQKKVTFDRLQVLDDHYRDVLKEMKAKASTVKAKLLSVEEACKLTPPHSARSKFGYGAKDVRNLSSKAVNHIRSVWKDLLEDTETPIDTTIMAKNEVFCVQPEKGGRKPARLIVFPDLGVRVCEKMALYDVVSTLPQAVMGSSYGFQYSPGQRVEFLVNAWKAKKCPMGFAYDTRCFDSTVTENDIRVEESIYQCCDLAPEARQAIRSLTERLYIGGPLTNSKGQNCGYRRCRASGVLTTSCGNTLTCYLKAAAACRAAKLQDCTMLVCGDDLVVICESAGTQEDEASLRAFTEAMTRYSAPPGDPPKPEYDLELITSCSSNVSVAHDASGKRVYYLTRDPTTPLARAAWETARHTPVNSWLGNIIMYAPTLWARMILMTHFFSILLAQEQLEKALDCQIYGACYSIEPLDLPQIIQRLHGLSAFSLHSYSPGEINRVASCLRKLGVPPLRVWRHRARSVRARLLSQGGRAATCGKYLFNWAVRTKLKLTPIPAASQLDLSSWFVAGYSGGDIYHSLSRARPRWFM

| Compound | EC50 (HCV replicon [1]) | EC50 (HCV replicon [2]) | IC50 ([3]; preincubation protocol) | IC50 [3, 4] |
| --- | --- | --- | --- | --- |
| COC(=O)c1ccc2c(C3CCCCC3)c3n(c2c1)CC(=O)N3Cc1ccccc1 | 1000 to 10000 nM |  |  |  |
| O=C(O)c1ccc2c(C3CCCCC3)c3n(c2c1)CC(=O)N3Cc1ccccc1 | > 10000 nM |  |  |  |
| COC(=O)c1ccc2c(C3CCCCC3)c3n(c2c1)CC(=O)N3 | 1000 to 10000 nM |  |  |  |
| CC(C)(C)OC(=O)/C=C/c1ccc(NC(=O)C2(NC(=O)c3ccc4c(C5CCCCC5)c5n(c4c3)CC(=O)N5Cc3ccccc3)CCCC2)cc1 | > 10000 nM |  |  |  |
| CCOC(=O)/C=C/c1ccc(NC(=O)C2(NC(=O)c3ccc4c(C5CCCCC5)c5n(c4c3)CC(=O)Nc3ccccc3-5)CCCC2)cc1 | 10 to 1000 nM |  |  |  |
| O=C(O)c1ccc2c(C3CCCCC3)c3n(c2c1)CC/C=C\Nc1ccccc1-3 | 1000 to 10000 nM |  |  |  |
| COc1ccc2c(c1)C=C(C(=O)N1CCOCC1)Cn1c-2c(C2CCCCC2)c2ccc(C(=O)NS(=O)(=O)C3CC3)cc21 |  | 50 to 1000 nM | 10 to 1000 nM |  |
| COc1ccc2c(c1)C=C(C(=O)N1CCC[C@@H](O)C1)Cn1c-2c(C2CCCCC2)c2ccc(C(=O)NS(=O)(=O)N(C)C)cc21 |  | 50 to 1000 nM | 10 to 1000 nM |  |
| C[C@@H]1CN(C(=O)C2(F)Cc3ccccc3-c3c(C4CCCCC4)c4ccc(C(=O)O)cc4n3C2)C[C@H](O)O1 (some centres unmarked) |  | 1000 to 10000 nM | 10 to 1000 nM |  |
| COc1ccc2c(c1)C=C(C(=O)N1CCC(O)CC1)Cn1c-2c(C2CCCCC2)c2ccc(C(=O)NS(=O)(=O)N(C)C)cc21 |  | 50 to 1000 nM | 10 to 1000 nM |  |
| COc1ccc2c(c1)C(=O)n1c-2c(C2CCCCC2)c2ccc(C(=O)NS(=O)(=O)N(C)C)cc21 |  | 1000 to 10000 nM | 10 to 1000 nM |  |
| COC(=O)c1ccc2c(C3CCCCC3)c3n(c2c1)CC(C(=O)N1C[C@@H](C)O[C@@H](C)C1)=Cc1cc(F)ccc1-3 |  | 1000 to 10000 nM | > 1000 nM |  |
| C[C@@H]1CN(C(=O)C2=Cc3cc(F)ccc3-c3c(C4CCCCC4)c4ccc(C(=O)O)cc4n3C2)C[C@H](C)O1 |  | 50 to 1000 nM | 10 to 1000 nM |  |
| C[C@@H]1CN(C(=O)C2=Cc3cc(F)ccc3-c3c(C4CCCCC4)c4ccc(C(=O)NS(=O)(=O)N(C)C)cc4n3C2)C[C@H](C)O1 |  | 50 to 1000 nM | 10 to 1000 nM |  |
| COC(=O)c1ccc2c(C3CCCCC3)c3n(c2c1)CC(C(=O)N1C[C@@H](C)N[C@@H](C)C1)=Cc1cc(F)ccc1-3 |  | 1000 to 10000 nM | 10 to 1000 nM |  |
| C[C@@H]1CN(C(=O)C2=Cc3cc(F)ccc3-c3c(C4CCCCC4)c4ccc(C(=O)O)cc4n3C2)C[C@H](C)N1 |  | 50 to 1000 nM | 10 to 1000 nM |  |
| COC(=O)c1ccc2c(C3CCCCC3)c3n(c2c1)C(C(=O)N1CCOCC1)CCc1ccccc1-3 (centres unmarked) |  | 50 to 1000 nM | > 12500 nM |  |
| C[C@@H]1CN(C(=O)C2=Cc3ccccc3-c3c(C4CCCCC4)c4ccc(C(=O)NC5(C(=O)Nc6ncc(-c7ccc(C(=O)O)cc7)s6)CCCC5)cc4n3C2)C[C@H](C)O1 |  | 50 to 1000 nM | 10 to 1000 nM |  |
| C[C@@H]1CN(C(=O)C2=Cc3ccccc3-c3c(C4CCCCC4)c4ccc(C(=O)NC5(C(=O)Nc6nccs6)CCCC5)cc4n3C2)C[C@H](C)O1 |  | 50 to 1000 nM | 10 to 1000 nM |  |
| O=C(O)c1ccc2c(C3CCCCC3)c3n(c2c1)C(C(=O)N1CCOCC1)CCc1ccccc1-3 (centres unmarked) |  | > 3300 nM | > 12500 nM |  |
| COc1ccc2c(c1)C=C(C(=O)N(C)CCO)Cn1c-2c(C2CCCCC2)c2ccc(C(=O)NS(=O)(=O)N(C)C)cc21 |  | 50 to 1000 nM | < 20 nM |  |
| COc1ccc2c(c1)C=C(C(=O)N(CCO)CCO)Cn1c-2c(C2CCCCC2)c2ccc(C(=O)NS(=O)(=O)N(C)C)cc21 |  | 50 to 1000 nM | < 20 nM |  |

| Compound | EC50 (HCV replicon [1]) | EC50 (HCV replicon [2]) | IC50 ([3]; preincubation protocol) | IC50 [3, 4] |
| --- | --- | --- | --- | --- |
| C[C@@H]1CN(C(=O)C2=Cc3ccccc3-c3c(C4CCCCC4)c4ccc(C(=O)NC5(C(=O)O)CCCC5)cc4n3C2)C[C@H](C)O1 |  | 50 to 1000 nM | 10 to 1000 nM |  |
| COc1ccc2c(c1)CC(C(=O)N1C[C@@H](C)N[C@@H](C)C1)Cn1c-2c(C2CCCCC2)c2ccc(C(=O)NS(=O)(=O)N(C)C)cc21 (some centres unmarked) |  | 50 to 1000 nM | 10 to 1000 nM |  |
| C[C@@H]1CN(C(=O)C2=Cc3cc(F)ccc3-c3c(C4CCCCC4)c4ccc(C(=O)NS(=O)(=O)N(C)C)cc4n3C2)C[C@H](C)N1 |  | 50 to 1000 nM | 10 to 1000 nM |  |
| COc1ccc2c(c1)CC(C(=O)N(CCO)CCO)Cn1c-2c(C2CCCCC2)c2ccc(C(=O)NS(=O)(=O)N(C)C)cc21 (centres unmarked) |  | 50 to 1000 nM | 10 to 1000 nM |  |
| COc1ccc2c(c1)CC(C(=O)N(C)CCO)Cn1c-2c(C2CCCCC2)c2ccc(C(=O)NS(=O)(=O)N(C)C)cc21 (centres unmarked) |  | 50 to 1000 nM | 10 to 1000 nM |  |
| CNS(=O)(=O)NC(=O)c1ccc2c(C3CCCCC3)c3n(c2c1)CC(C(=O)N1C[C@@H](C)O[C@@H](C)C1)=Cc1cc(F)ccc1-3 |  | 50 to 1000 nM | 10 to 1000 nM |  |
| CNCCNC(=O)c1ccc2c(C3CCCCC3)c3n(c2c1)CC(C(=O)N1C[C@@H](C)O[C@@H](C)C1)=Cc1ccccc1-3 |  | 50 to 1000 nM | 10 to 1000 nM |  |
| CNS(=O)(=O)NC(=O)c1ccc2c(C3CCCCC3)c3n(c2c1)CC(C(=O)N1C[C@@H](C)O[C@@H](C)C1)Cc1ccccc1-3 (some centres unmarked) |  | 50 to 1000 nM | 10 to 1000 nM |  |
| COC(=O)C1=Cc2c(OC)cccc2-c2c(C3CCCCC3)c3ccc(C(=O)OC)cc3n2C1 |  | > 3300 nM | > 4000 nM |  |
| COC(=O)c1ccc2c(C3CCCCC3)c3n(c2c1)CC(C(=O)O)=Cc1c(OC)cccc1-3 |  | 1000 to 10000 nM | 1000 to 10000 nM |  |
| COC(=O)c1ccc2c(C3CCCCC3)c3n(c2c1)CC(C(=O)N1C[C@@H](C)O[C@@H](C)C1)=Cc1cc(OC)ncc1-3 |  | > 1000 nM | > 1000 nM |  |
| COc1cccc2c1C=C(C(=O)N1C[C@@H](C)O[C@@H](C)C1)Cn1c-2c(C2CCCCC2)c2ccc(C(=O)O)cc21 |  | 50 to 1000 nM | 10 to 1000 nM |  |
| COc1cccc2c1C=C(C(=O)N1C[C@@H](C)O[C@@H](C)C1)Cn1c-2c(C2CCCCC2)c2ccc(C(=O)NS(=O)(=O)N(C)C)cc21 |  | 50 to 1000 nM | 10 to 1000 nM |  |
| COC(=O)c1ccc2c(C3CCCCC3)c3n(c2c1)C(O)c1cc(OC)ccc1-3 (centres unmarked) |  | > 100 nM | > 1000 nM |  |
| COC(=O)c1ccc2c(C3CCCCC3)c3n(c2c1)C(O)c1cc(OCc2ccccc2)ccc1-3 (centres unmarked) |  | > 100 nM | 1000 to 10000 nM |  |
| COC(=O)/C=C/c1ccc(NC(=O)C2(NC(=O)c3ccc4c(C5CCCCC5)c5n(c4c3)CC(=O)Nc3cccnc3-5)CCCC2)cc1 [drawing 159] |  | < 100 nM |  | 20 to 1000 nM |
| O=C(O)/C=C/c1ccc(NC(=O)C2(NC(=O)c3ccc4c(C5CCCCC5)c5n(c4c3)CCCc3ccccc3-5)CCNCC2)cc1 [drawing 160] |  | 10 to 1000 nM |  | 20 to 1000 nM |
| COC(=O)c1ccc2c(C3CCCCC3)c3n(c2c1)CC(C(=O)OCc1ccccc1)=Cc1ccccc1-3 [drawing 223] |  | 1000 to 10000 nM |  | > 1000 nM |
| O=C(NS(=O)(=O)C1CC1)c1ccc2c(C3CCCCC3)c3n(c2c1)CC(C(=O)N1CCOCC1)Cc1ccccc1-3 (centres unmarked) [drawing 287] |  | 10 to 1000 nM |  | 20 to 1000 nM |
| CS(=O)(=O)NC(=O)c1ccc2c(C3CCCCC3)c3n(c2c1)CC(C(=O)N1CCOCC1)Cc1ccccc1-3 (centres unmarked) [drawing 303] |  | 10 to 1000 nM |  | 20 to 1000 nM |
| O=C(O)c1ccc2c(C3CCCCC3)c3n(c2c1)CC(C(=O)O)Cc1ccccc1-3 (centres unmarked) [drawing 305] |  | > 10000 nM |  | 20 to 1000 nM |
